Test results as given in article PMC7054748, “The identification and characterisation of autophagy inhibitors from the published kinase inhibitor sets” (Biochemical Journal, 2020).
Several values for one entry are separate records, joined by “and”; a condition that tells them apart may be missing. Equal values may be shown once. Read-outs that look alike come from different tables or passages of the source.

Key:
ULK1 = biological target: T1, ULK1 (Homo sapiens, UniProt O75385); experiment: ULK1 ADP Hunter Plus kinase activity assay; assay type: biochemical
T1 construct: purchased MRC PPU Reagents and Services, Dundee, Scotland
T1 sequence (O75385 1-1050): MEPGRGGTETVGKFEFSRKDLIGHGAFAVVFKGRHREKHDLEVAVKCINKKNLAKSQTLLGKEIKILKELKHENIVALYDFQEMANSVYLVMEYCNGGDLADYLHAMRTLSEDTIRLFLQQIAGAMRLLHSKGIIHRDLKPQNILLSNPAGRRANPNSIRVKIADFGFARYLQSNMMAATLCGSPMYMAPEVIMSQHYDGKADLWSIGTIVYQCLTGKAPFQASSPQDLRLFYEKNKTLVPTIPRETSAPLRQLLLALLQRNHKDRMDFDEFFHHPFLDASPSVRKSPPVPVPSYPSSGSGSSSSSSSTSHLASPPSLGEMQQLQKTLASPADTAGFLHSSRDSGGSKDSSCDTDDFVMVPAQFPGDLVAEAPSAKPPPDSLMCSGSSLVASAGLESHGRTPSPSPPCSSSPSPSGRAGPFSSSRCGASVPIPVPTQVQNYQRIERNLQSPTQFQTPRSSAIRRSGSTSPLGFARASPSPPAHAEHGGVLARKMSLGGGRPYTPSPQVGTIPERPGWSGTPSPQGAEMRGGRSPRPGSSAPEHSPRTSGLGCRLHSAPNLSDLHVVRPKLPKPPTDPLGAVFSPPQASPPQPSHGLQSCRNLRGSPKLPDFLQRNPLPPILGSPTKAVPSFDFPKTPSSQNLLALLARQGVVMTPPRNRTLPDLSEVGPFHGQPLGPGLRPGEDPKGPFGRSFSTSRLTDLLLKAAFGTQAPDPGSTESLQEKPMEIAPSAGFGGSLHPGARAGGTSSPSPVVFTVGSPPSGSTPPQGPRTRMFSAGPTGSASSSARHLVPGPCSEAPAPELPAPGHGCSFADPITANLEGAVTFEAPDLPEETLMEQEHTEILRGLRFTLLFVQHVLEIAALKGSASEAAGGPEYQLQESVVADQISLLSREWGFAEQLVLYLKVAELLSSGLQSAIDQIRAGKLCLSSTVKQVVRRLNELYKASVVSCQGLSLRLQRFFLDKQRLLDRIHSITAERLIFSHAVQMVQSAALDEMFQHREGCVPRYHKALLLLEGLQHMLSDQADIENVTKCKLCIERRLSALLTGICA

VPS34 (WIPI2 puncta) = experiment: Cellular VPS34 activity: WIPI2 puncta immunofluorescence in U2OS cells; assay type: cell-based, human
Procedure: (§1) U2OS (human osteosarcoma-derived) cells were cultured in DMEM supplemented with 10% foetal bovine serum, 100 U/ml Penicillin and […] L-glutamine. Cells were pre-treated with compounds at the indicated concentrations for 60 min followed by treatments with EBSS or EBSS combined with/without 50 nM Bafilomycin A1 (Enzo Life Sciences) for a further 60 or 120 min with/without inhibitors, as indicated in figures/figure legends.
(§2) Prior to immunofluorescence, cells were grown on glass coverslips to ∼60% confluency. Cells were washed in PBS prior to fixation with 3.7% PFA/10 mM HEPES pH 7.0 at room temperature for 20 min. PFA was quenched using DMEM/10 mM HEPES pH 7.0/0.02% NaN3, followed by permeabilisation with 0.2% NP-40 in PBS for 5 min, followed by blocking with 1% BSA/PBS/0.02% NaN3. Primary antibody incubation was at room temperature for 60 min, followed by two 10-minute washes, then fluorescent secondary antibody incubation for 30 min and further washes (all in blocking buffer) before mounting onto glass slides. A wide field Nikon TS microscope was used for image capturing.
(§3) Quantification of western blots was performed with band densitometry analysis using ImageJ. Quantification of LC3 puncta was performed using either the ITCN plugging in ImageJ or Volocity. One-way or two-way Anova (using GraphPad Prism) followed by a post-hoc test, was used for statistical analysis of western blots and immunofluorescence as indicated in figure legends.

AMPK α1β2ɣ1 = AMPK α1β2ɣ1 (Homo sapiens, UniProt O43741+P54619+Q13131); experiment: AMPK ADP Hunter Plus kinase activity assay
VPS34 = VPS34 (Homo sapiens, UniProt Q8NEB9); experiment: VPS34 ADP Hunter Plus kinase activity assay; conditions: for Mechanism of inhibition of VPS34 with respect to ATP: varying ATP below 200 µM, Michaelis–Menten and Lineweaver–Burk plots; for Mechanism of inhibition of VPS34 with respect to PI:PS: varying PI:PS below 12 µM
ULK1 (pS318 ATG13) = experiment: Cellular ULK1 kinase activity: pS318 ATG13 western blot in U2OS cells; assay type: cell-based, human; conditions: for Effect on starvation-induced increase in pS318 ATG13: 5 µM, 60 min pre-treatment then 60 min EBSS, U2OS; for Cellular ULK1 inhibition compared with GW837331X and GW406108X: 2 µM MRT68921, 5 µM SBI0206965, 120 min EBSS, U2OS western blot (Supplementary Figure S6C)
Procedure: as §1
(§4) Lysates were then spun at 20 000×g for 10 min and the supernatant was collected for protein content estimation using Protein Assay Dye Reagent Concentrate from Bio-Rad. 4× LDS was added to the lysate (final dilution 1×) prior to heating at 95°C for 5 min. Electrophoresis and transfer to PVDF membranes was performed using standard protocols. Membranes were blocked in 5% milk in TBS-T prior to incubation with primary antibodies (in 5% milk/TBS-T for ULK1, pS555 (human S556) ULK1, pS757 (human S758) ULK1, pS318-ATG13, ATG13, and in 5% BSA/TBS-T for LC3 and α-Tubulin) under rotation overnight at 4°C followed by washes in TBS-T and incubation with HRP-conjugated secondary antibodies (in 5% milk in TBS-T) for 60 min at room temperature. Membranes were washed in TBS-T before application of ECL reagent (GE healthcare) and development on hypersensitive X-ray films (GE healthcare) (Figures 5A, 6C and Supplementary Figure S7C) or using BIO-RAD Clarity^TM western blotting substrate (Supplementary Figure S6C and Supplementary Figure S7A) and a BIO-RAD ChemiDoc^TM imaging system.
as §3

LC3 flux in U2OS cells = experiment: Autophagic flux: LC3-II western blot with/without BafA1 in U2OS cells; assay type: cell-based, human; conditions: for Effect on starvation-induced LC3 flux: 5 µM, 60 min pre-treatment then 60 min EBSS ± 50 nM BafA1, U2OS
Procedure: as §1
as §4, with “Prior to western blot analysis, cells were washed twice in ice-cold PBS and lysed in buffer containing 50 mM HEPES pH 7.4, 150 mM NaCl, 1 mM EDTA, 10% Glycerol, 0.5% NP-40, 1 mM DTT, supplemented with phosphatase inhibitors (1.15 mM sodium molybdate, 4 mM sodium tartrate, 0.01 M β-glycerophosphate, 1 mM sodium fluoride, 1 mM sodium orthovanadate) and protease inhibitor tablets (Roche) according to manufacturer's instructions. Lysates” for “Lysates”
as §3

LC3 puncta in U2OS cells = experiment: Endogenous LC3 puncta immunofluorescence in U2OS cells; assay type: cell-based, human; conditions: for Enlarged/stalled LC3 puncta (autophagosomes) phenotype: 2 µM MRT68921, 5 µM others, 60 min pre-treatment then 120 min EBSS; for Effect on EBSS-induced increase in LC3 puncta formation: 5 µM
Procedure: as §1, §2, §3

mTOR (ULK1 pS758) = experiment: Upstream mTOR activity: ULK1 pS758 western blot in U2OS cells; assay type: cell-based, human; conditions: for Effect on mTORC1 activity (pS758 ULK1): 100 nM (VPS34-IN1 500 nM), 60 min pre-treatment, ± EBSS 60 min
Procedure: as §1, §4, §3

AMPK (ULK1 pS556) = experiment: Upstream AMPK activity: ULK1 pS556 western blot in U2OS cells; assay type: cell-based, human; conditions: for Effect on AMPK activity (pS556 ULK1): 100 nM (VPS34-IN1 500 nM), 60 min pre-treatment, ± EBSS 60 min
Procedure: as §1, §4, §3

[1] = tested on: kinases (human kinome panel); parameters: method as in ChEMBL database; conditions: value = the kinase inhibited over 50%; ref ChEMBL database; cited from earlier work
[2] = resynthesized samples, mean potency in parenthesis, n = 5, read-out: IC50 against ULK1 (converted)
[3] = IC50 against VPS34, resynthesized samples, mean potency in parenthesis, n = 5
[4] = pIC50 against VPS34, original PKIS samples, concentration-dependent retest of screen hits

Chain of AMPK α1β2ɣ1 (Q13131 whole entry): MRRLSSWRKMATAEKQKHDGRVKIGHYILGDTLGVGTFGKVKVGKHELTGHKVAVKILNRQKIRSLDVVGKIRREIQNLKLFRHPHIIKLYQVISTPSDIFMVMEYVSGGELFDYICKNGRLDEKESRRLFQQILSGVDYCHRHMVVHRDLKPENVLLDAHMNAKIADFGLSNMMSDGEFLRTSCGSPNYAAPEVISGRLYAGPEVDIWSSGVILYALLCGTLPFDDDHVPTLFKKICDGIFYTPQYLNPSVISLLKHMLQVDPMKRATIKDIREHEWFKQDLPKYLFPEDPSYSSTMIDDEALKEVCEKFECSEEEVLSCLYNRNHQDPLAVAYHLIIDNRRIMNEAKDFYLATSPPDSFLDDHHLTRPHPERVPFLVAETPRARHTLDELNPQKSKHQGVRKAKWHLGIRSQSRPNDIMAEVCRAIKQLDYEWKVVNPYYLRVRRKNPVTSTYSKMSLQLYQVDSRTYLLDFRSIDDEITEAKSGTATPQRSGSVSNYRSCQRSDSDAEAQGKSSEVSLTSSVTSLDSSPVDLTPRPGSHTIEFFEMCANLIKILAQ
Chain of AMPK α1β2ɣ1 (O43741 whole entry partner): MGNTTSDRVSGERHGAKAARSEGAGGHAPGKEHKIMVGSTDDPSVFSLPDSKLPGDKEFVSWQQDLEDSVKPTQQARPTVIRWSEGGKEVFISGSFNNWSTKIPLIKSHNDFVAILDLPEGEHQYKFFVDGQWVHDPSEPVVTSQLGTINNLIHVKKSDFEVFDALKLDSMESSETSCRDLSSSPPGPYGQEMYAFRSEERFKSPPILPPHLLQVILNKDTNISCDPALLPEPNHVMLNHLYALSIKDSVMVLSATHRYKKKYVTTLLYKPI
Chain of AMPK α1β2ɣ1 (P54619 whole entry partner): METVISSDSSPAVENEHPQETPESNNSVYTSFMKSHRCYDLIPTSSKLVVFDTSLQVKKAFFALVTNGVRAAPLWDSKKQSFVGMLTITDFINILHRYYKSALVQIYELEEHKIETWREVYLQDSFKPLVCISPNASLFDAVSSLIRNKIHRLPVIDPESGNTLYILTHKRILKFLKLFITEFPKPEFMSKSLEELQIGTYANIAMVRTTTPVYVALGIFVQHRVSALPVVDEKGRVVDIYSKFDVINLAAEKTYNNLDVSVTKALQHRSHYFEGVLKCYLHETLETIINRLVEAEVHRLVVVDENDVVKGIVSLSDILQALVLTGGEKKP
Chain of VPS34 (Q8NEB9 whole entry): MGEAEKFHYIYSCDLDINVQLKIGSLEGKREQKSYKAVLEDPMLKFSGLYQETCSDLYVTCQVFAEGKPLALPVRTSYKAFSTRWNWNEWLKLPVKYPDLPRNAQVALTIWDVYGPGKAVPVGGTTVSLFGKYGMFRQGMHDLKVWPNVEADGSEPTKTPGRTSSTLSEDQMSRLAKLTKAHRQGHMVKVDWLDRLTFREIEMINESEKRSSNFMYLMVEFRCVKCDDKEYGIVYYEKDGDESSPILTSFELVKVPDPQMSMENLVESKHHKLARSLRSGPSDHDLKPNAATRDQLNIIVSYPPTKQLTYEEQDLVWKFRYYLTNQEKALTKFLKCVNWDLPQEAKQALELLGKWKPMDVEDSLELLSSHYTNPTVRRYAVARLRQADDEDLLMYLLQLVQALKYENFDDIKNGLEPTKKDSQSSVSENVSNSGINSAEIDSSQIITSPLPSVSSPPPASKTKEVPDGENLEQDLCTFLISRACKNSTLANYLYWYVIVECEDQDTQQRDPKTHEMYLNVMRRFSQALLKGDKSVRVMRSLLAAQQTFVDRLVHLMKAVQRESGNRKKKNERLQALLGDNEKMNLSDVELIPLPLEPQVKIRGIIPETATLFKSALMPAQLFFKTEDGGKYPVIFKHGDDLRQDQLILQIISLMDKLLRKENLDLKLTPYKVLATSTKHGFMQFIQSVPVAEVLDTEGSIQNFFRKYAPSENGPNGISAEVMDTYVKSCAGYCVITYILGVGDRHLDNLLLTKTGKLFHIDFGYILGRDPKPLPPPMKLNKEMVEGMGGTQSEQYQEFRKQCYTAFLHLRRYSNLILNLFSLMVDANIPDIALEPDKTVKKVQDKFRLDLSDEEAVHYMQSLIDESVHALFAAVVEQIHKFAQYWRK

## O=S(=O)(c1ccc(-c2ccnc3[nH]ccc23)cc1)N1CCCC1 [GSK846226A]
ULK1; [2]
  IC50: 603 nM
VPS34 (WIPI2 puncta); EBSS, not at lower concentrations
  Concentration with inhibitory effect on WIPI2 puncta formation: 5 µM
AMPK α1β2ɣ1
  IC50: 2510 nM
VPS34; IC50 against VPS34, resynthesized sample
  IC50: 1200 nM
VPS34; [3]
  IC50: 1200 nM
VPS34; [4]
  IC50: < 1000 nM
VPS34
  Mechanism of inhibition of VPS34 with respect to ATP: primarily ATP competitive inhibition
  Mechanism of inhibition of VPS34 with respect to PI:PS: clear non-competitive inhibition

## CC(C)(CO)CNC(=O)c1ccc2c(c1)/C(=N/Nc1ccc(S(N)(=O)=O)cc1)C(=O)N2 [GW301784X]
ULK1 (pS318 ATG13)
  Effect on starvation-induced increase in pS318 ATG13: did not have a significant effect
LC3 flux in U2OS cells
  Effect on starvation-induced LC3 flux: did not block LC3 flux
AMPK α1β2ɣ1
  IC50: 347 nM
VPS34; pIC50 against VPS34, resynthesized samples, 50 µM ATP (KM app), mean ± SD, n = 5
  IC50: 26300 nM

## O=C1Nc2ccc(C(=O)c3ccco3)cc2C1=Cc1cc(Cl)c(O)c(Cl)c1 [GW406108X]
ULK1 (pS318 ATG13)
  Effect on starvation-induced increase in pS318 ATG13: significantly reduced
LC3 flux in U2OS cells
  Effect on starvation-induced LC3 flux: significantly blocked
LC3 puncta in U2OS cells
  Enlarged/stalled LC3 puncta (autophagosomes) phenotype: did not show this phenotype
  Effect on EBSS-induced increase in LC3 puncta formation: abolished
VPS34; [3]
  IC50: 457 nM

## O=C1Nc2ccc(-c3cccnc3)cc2C1=Cc1cc(Br)c(O)c(Br)c1 [GW429374A]
ULK1; [2]
  IC50: 8710 nM
LC3 flux in U2OS cells; 100 nM, 60 min pre-treatment then 60 min EBSS, U2OS
  Effect on LC3 flux under EBSS starvation: significantly reduced LC3 flux
VPS34 (WIPI2 puncta); 100 nM, 60 min pre-treatment then 60 min EBSS, vs EBSS only
  Effect on EBSS-induced WIPI2 puncta: significantly reduced
VPS34 (WIPI2 puncta); EBSS, as low as
  Concentration working in cells (WIPI2 puncta reduction): ≤ 100 nM
mTOR (ULK1 pS758)
  Effect on mTORC1 activity (pS758 ULK1): unaffected
AMPK (ULK1 pS556)
  Effect on AMPK activity (pS556 ULK1): unaffected
AMPK α1β2ɣ1
  IC50: 3160 nM
VPS34; [3]
  IC50: 90.5 nM and 91 nM
VPS34; [4]
  IC50: < 1000 nM
VPS34
  Mechanism of inhibition of VPS34 with respect to ATP: primarily ATP competitive inhibition
  Mechanism of inhibition of VPS34 with respect to PI:PS: clear non-competitive inhibition

## COc1cc(Nc2ncc3c(C)nc(-c4cccc(C(F)(F)F)c4)n3n2)cc(OC)c1OC [GW837331X]
ULK1; original PKIS samples, concentration-dependent retest of screen hits, read-out: pIC50 against ULK1 (converted)
  IC50: < 1000 nM
ULK1; [2]
  IC50: 646 nM
ULK1; varying ATP below 600 µM, Michaelis–Menten and Lineweaver–Burk plots
  Mechanism of inhibition of ULK1 with respect to ATP: primarily ATP competitive inhibition
ULK1; varying MBP substrate
  Mechanism of inhibition of ULK1 with respect to MBP: clear non-competitive inhibition
ULK1 (pS318 ATG13)
  Effect on starvation-induced increase in pS318 ATG13: significantly reduced
LC3 flux in U2OS cells
  Effect on starvation-induced LC3 flux: significantly blocked
LC3 puncta in U2OS cells
  Enlarged/stalled LC3 puncta (autophagosomes) phenotype: did not show this phenotype
  Effect on EBSS-induced increase in LC3 puncta formation: abolished
mTOR (ULK1 pS758); 5 µM
  Effect on mTOR activity (ULK1 pS758 levels): without affecting mTOR or AMPK activity
AMPK (ULK1 pS556); 5 µM
  Effect on AMPK activity (ULK1 pS556 levels): without affecting mTOR or AMPK activity
[1]
  Kinases that are inhibited over 50% (descending order): NEK9 and PLK1 and FMS and SRC and MELK and EphB2 and EphA4
AMPK α1β2ɣ1
  IC50: 2340 nM
VPS34; [3]
  IC50: > 100000 nM

## CN1CCc2cc(Nc3ncc(C4CC4)c(NCCCNC(=O)C4CCC4)n3)ccc2C1 [MRT68921, reference compound]
ULK1 (pS318 ATG13)
  Cellular ULK1 inhibition compared with GW837331X and GW406108X: inhibited ULK1 more potently
LC3 puncta in U2OS cells
  Enlarged/stalled LC3 puncta (autophagosomes) phenotype: larger than those formed with EBSS alone

## CNC(=O)c1ccccc1Oc1nc(Nc2cc(OC)c(OC)c(OC)c2)ncc1Br [SBI0206965, reference compound]
ULK1 (pS318 ATG13)
  Cellular ULK1 inhibition compared with GW837331X and GW406108X: inhibited ULK1 more potently
LC3 puncta in U2OS cells
  Enlarged/stalled LC3 puncta (autophagosomes) phenotype: larger than those formed with EBSS alone

## CC(C)(O)CNc1ncc(-c2ccnc(Nc3ccnc(Cl)c3)n2)c(CC2CC2)n1 [VPS34-IN1, reference compound]
LC3 flux in U2OS cells; U2OS, EBSS + 50 nM BafA1, as low as, greater effect at 100 nM
  Concentration blocking EBSS-induced autophagy (LC3) flux: ≤ 10 nM
mTOR (ULK1 pS758)
  Effect on mTORC1 activity (pS758 ULK1): unaffected
AMPK (ULK1 pS556)
  Effect on AMPK activity (pS556 ULK1): unaffected
